For orientation: EC50 means the concentration that produces a half-maximal response.

Type in all cases: cell-based
The target in assay [1] is T1, human somatostatin receptor subtype 2 (Homo sapiens, UniProt P30874).
T1 construct: expressed in transfected cells
The assay is described as follows: Functional assay for SSTR2 agonists (HTRF cAMP). Particulars: CHO-K1 cells stably expressing human SST2; NKH477-stimulated cAMP; 20 min at 37 C; read-out: hSST2 cAMP Avg EC50. A digest of the protocol: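 CHO-K1 cells stably expressing human SSTR2 treated with compound (typically 0-10,000 nM final) for 20 min at 37 °C. Lysate cAMP measured by HTRF (665/620 nm ratio), converted via standard curve; EC50 from cAMP vs concentration.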
(TR-FRET usually uses a lanthanide donor and a delayed reading to cut background.)

In assay [2] the target is T2, SST2 (Homo sapiens, UniProt P30874).
T2 construct: host or cells: PathHunter CHO-K1 SST2 cells
Description: PathHunter CHO-K1 SST2 Internalization Assay. Particulars: PathHunter CHO-K1 SST2 cells; 90 min at 37 C; luminescence; read-out: Internalization EC50. A digest of the protocol: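 CHO-K1 cells expressing human SST2, 2500 cells/well, grown 48 h, then exposed 90 min at 37 C to 11-point 1:3 NDC dilutions (final top 10 uM). Beta-Glo luminescence after 60 min at room temperature; four-parameter IC50, duplicate mean, background-corrected.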

Assay [3] concerns NCI-H524 human small cell lung cancer cells. The assay is described as follows: H524 assay: inhibition of cell proliferation (CellTiter Glo). The note with it: 2 h treatment, washout, additional 70 h incubation. A digest of the protocol: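 NCI-H524 cells were exposed for 2 h to NDC in an 11-point two-fold series starting at 1 uM. The drug was then washed out and cells grew a further 70 h. CellTiter Glo luminescence gave % inhibition versus untreated control, and IC50 came from a four-parameter nonlinear regression.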
A general note: In ATP-based viability assays light output follows the ATP content of the culture.

Each structure is given as a SMILES string. *1 amine or outer side, *2 acyl side, *3 side chain or, on linkers, in order; H or OH if unused. Where a SMILES comes first, the peptide text is derived from it. [ ]: non-standard residue; d: D form. The star is where a group is joined. X3 = Cc1cc(F)cc(-c2cnc(NCCNC(=O)CCOCCOCCOCCOCCC(=O)*)c(-c3nc4ccc(Cl)cc4[nH]3)c2N2CCC(N)CC2)c1; Dolaproine = CO[C@@H]([C@@H]1CCCN1)[C@@H](C)C(=O)O; Dil = CC[C@H](C)[C@H](NC)[C@@H](CC(=O)O)OC; PABC = O=C(OCc1ccc(N[*:1])cc1)[*:2]; X2 = C[C@@H](N*)[C@@H](O)c1ccccc1; Cit = NC(=O)NCCC[C@H](N)C(=O)O; NMeV = CN[C@H](C(=O)O)C(C)C; Ahx = NCCCCCC(=O)O

T2 sequence (P30874 whole entry): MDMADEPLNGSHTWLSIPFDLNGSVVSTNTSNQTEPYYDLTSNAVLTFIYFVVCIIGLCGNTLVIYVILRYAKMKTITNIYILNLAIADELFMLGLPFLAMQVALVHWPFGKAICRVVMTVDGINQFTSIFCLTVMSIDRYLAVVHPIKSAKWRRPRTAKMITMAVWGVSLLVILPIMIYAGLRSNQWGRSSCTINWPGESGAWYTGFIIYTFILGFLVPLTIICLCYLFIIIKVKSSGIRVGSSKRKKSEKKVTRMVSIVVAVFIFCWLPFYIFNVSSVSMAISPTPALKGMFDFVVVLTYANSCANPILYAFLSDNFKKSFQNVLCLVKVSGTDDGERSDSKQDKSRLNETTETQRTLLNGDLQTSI
T1 sequence (P30874 whole entry): as above

In the case of `CC[C@H](C)[C@@H]([C@@H](CC(=O)N1CCC[C@H]1[C@H](OC)[C@@H](C)C(=O)N[C@H](C)[C@@H](O)c1ccccc1)OC)N(C)C(=O)[C@@H](NC(=O)[C@H](C(C)C)N(C)C(=O)OCc1ccc(NC(=O)[C@H](CCCNC(N)=O)NC(=O)[C@@H](NS(=O)(=O)C[C@H](C)CC(=O)CCOCCC(=O)NCCNc2ncc(-c3cc(C)cc(F)c3)c(N3CCC(N)CC3)c2-c2nc3ccc(Cl)cc3[nH]2)C(C)C)c(O[C@@H]2C[C@H](C(=O)O)[C@@H](O)[C@H](O)[C@H]2O)c1)C(C)C` [Compound 132], the EC50 was found to be 0.26 nM in assay [1], 3.2 nM in assay [2] and 410 nM in assay [3].
Regarding `CC[C@H](C)[C@@H]([C@@H](CC(=O)N1CCC[C@H]1[C@H](OC)[C@@H](C)C(=O)N[C@H](C)[C@@H](O)c1ccccc1)OC)N(C)C(=O)[C@@H](NC(=O)[C@H](C(C)C)N(C)C(=O)OCc1ccc(NC(=O)[C@H](CCCNC(N)=O)NC(=O)[C@@H](NC(=O)CCOCCC(=O)N(C)CC(=O)NCCNc2ncc(-c3cc(C)cc(F)c3)c(N3CCC(N)CC3)c2-c2nc3ccc(Cl)cc3[nH]2)C(C)C)c(O[C@@H]2O[C@H](C(=O)O)[C@@H](O)[C@H](O)[C@H]2O)c1)C(C)C` [Compound 133], the EC50 came to 0.097 nM in assay [1], 5.3 nM in assay [2] and 1900 nM in assay [3].
For the compound `CC[C@H](C)[C@@H]([C@@H](CC(=O)N1CCC[C@H]1[C@H](OC)[C@@H](C)C(=O)N[C@H](C)[C@@H](O)c1ccccc1)OC)N(C)C(=O)[C@@H](NC(=O)[C@H](C(C)C)N(C)C(=O)OCc1ccc(NC(=O)[C@H](CCCNC(N)=O)NC(=O)[C@@H](NC(=O)C[C@@H](N)C(=O)NCCOCCC(=O)NCCNc2ncc(-c3cc(C)cc(F)c3)c(N3CCC(NC)CC3)c2-c2nc3ccc(Cl)cc3[nH]2)C(C)C)c(O[C@@H]2O[C@H](C(=O)O)[C@@H](O)[C@H](O)[C@H]2O)c1)C(C)C` [Compound 121], the EC50 was 0.14 nM in assay [1], 5.3 nM in assay [2] and 19 nM in assay [3].
The matching figures for `CC[C@H](C)[C@@H]([C@@H](CC(=O)N1CCC[C@H]1[C@H](OC)[C@@H](C)C(=O)N[C@H](C)[C@@H](O)c1ccccc1)OC)N(C)C(=O)[C@@H](NC(=O)[C@H](C(C)C)N(C)C(=O)OCc1ccc(NC(=O)[C@H](C)NC(=O)[C@@H](NC(=O)C2(C(=O)NCCOCCC(=O)NCCNc3ncc(-c4cc(C)cc(F)c4)c(N4CCC(N)CC4)c3-c3nc4ccc(Cl)cc4[nH]3)CCC2)C(C)C)cc1C(=O)NCCN)C(C)C` [Compound 82]: 0.26 nM, 13 nM and 6.6 nM.
The matching figures for `CC[C@H](C)[C@@H]([C@@H](CC(=O)N1CCC[C@H]1[C@H](OC)[C@@H](C)C(=O)N[C@H](C)[C@@H](O)c1ccccc1)OC)N(C)C(=O)[C@@H](NC(=O)[C@H](C(C)C)N(C)C(=O)OCc1ccc(NC(=O)[C@H](CCCNC(N)=O)NC(=O)[C@@H](NC(=O)CCOCCC(=O)N(C)CC(=O)NCCNc2ncc(-c3cc(C)cc(F)c3)c(N3CCC(N)CC3)c2-c2nc3ccc(Cl)cc3[nH]2)C(C)C)c(O[C@@H]2O[C@H](C(=O)NCCO)[C@@H](O)[C@H](O)[C@H]2O)c1)C(C)C` [Compound 207]: 0.23 nM, 5.9 nM and 8.4 nM.
Turning to `CC[C@H](C)[C@@H]([C@@H](CC(=O)N1CCC[C@H]1[C@H](OC)[C@@H](C)C(=O)N[C@H](C)[C@@H](O)c1ccccc1)OC)N(C)C(=O)[C@@H](NC(=O)[C@H](C(C)C)N(C)C(=O)OCc1ccc(NC(=O)[C@H](C)NC(=O)[C@@H](NC(=O)CCOCCC(=O)N(C)CC(=O)NCCNc2ncc(-c3cc(C)cc(F)c3)c(N3CCC(N)CC3)c2-c2nc3ccc(Cl)cc3[nH]2)C(C)C)c(O[C@@H]2O[C@H](C(=O)NCC(=O)O)[C@@H](O)[C@H](O)[C@H]2O)c1)C(C)C` [Compound 42], the figures for the concentration giving a half-maximal response (EC50) in assay [1], in assay [2] and in assay [3] were 0.1 nM, 3.8 nM and 25 nM, respectively.
For `CC[C@H](C)[C@@H]([C@@H](CC(=O)N1CCC[C@H]1[C@H](OC)[C@@H](C)C(=O)N[C@H](C)[C@@H](O)c1ccccc1)OC)N(C)C(=O)[C@@H](NC(=O)[C@H](C(C)C)N(C)C(=O)OCc1ccc(NC(=O)[C@H](CCCNC(N)=O)NC(=O)[C@@H](NC(=O)CCOCCC(=O)NCCNc2ncc(-c3cc(C)cc(F)c3)c(N3CCC(N)CC3)c2-c2nc3ccc(Cl)cc3[nH]2)C(C)C)c(O[C@@H]2O[C@H](C(=O)N(C)CC(=O)O)[C@@H](O)[C@H](O)[C@H]2O)c1)C(C)C` [Compound 216], the EC50 in assay [1] is 0.076 nM; in assay [2], 3 nM; in assay [3], 8.6 nM.
For `CC[C@H](C)[C@@H]([C@@H](CC(=O)N1CCC[C@H]1[C@H](OC)[C@@H](C)C(=O)N[C@H](C)[C@@H](O)c1ccccc1)OC)N(C)C(=O)[C@@H](NC(=O)[C@H](C(C)C)N(C)C(=O)OCc1ccc(NC(=O)[C@H](CCCNC(N)=O)NC(=O)[C@@H](NC(=O)c2cc(NCCOCCOCCOCCC(=O)NCCNc3ncc(-c4cc(C)cc(F)c4)c(N4CCC(N)CC4)c3-c3nc4ccc(Cl)cc4[nH]3)cc(C(=O)O)c2)C(C)C)cc1)C(C)C` [Compound 177] the same measures were 0.23 nM, 11 nM and 2300 nM.
For `CC[C@H](C)[C@@H]([C@@H](CC(=O)N1CCC[C@H]1[C@H](OC)[C@@H](C)C(=O)N[C@H](C)[C@@H](O)c1ccccc1)OC)N(C)C(=O)[C@@H](NC(=O)[C@H](C(C)C)N(C)C(=O)OCc1ccc(NC(=O)[C@H](C)NC(=O)[C@@H](NC(=O)[C@@H](CS(=O)(=O)O)NC(=O)CCOCCC(=O)NCCNc2ncc(-c3cc(C)cc(F)c3)c(N3CCC(N)CC3)c2-c2nc3ccc(Cl)cc3[nH]2)C(C)C)c(O[C@@H]2O[C@H](C(=O)NCCN)[C@@H](O)[C@H](O)[C@H]2O)c1)C(C)C` [Compound 41] the same measures were 0.081 nM, 9 nM and 40 nM.
For `CC[C@H](C)[C@@H]([C@@H](CC(=O)N1CCC[C@H]1[C@H](OC)[C@@H](C)C(=O)N[C@H](C)[C@@H](O)c1ccccc1)OC)N(C)C(=O)[C@@H](NC(=O)[C@H](C(C)C)N(C)C(=O)OCc1ccc(NC(=O)[C@H](CCCNC(N)=O)NC(=O)[C@@H](NC(=O)[C@H](Cc2c[nH]cn2)NC(=O)CCOCCC(=O)NCCNc2ncc(-c3cc(C)cc(F)c3)c(N3CCC(N)CC3)c2-c2nc3ccc(Cl)cc3[nH]2)C(C)C)c(O[C@@H]2C[C@H](C(=O)NCC(=O)O)[C@@H](O)[C@H](O)[C@H]2O)c1)C(C)C` [Compound 212] the same measures were 0.088 nM, 4.5 nM and 20 nM.
Consider `CC[C@H](C)[C@@H]([C@@H](CC(=O)N1CCC[C@H]1[C@H](OC)[C@@H](C)C(=O)N[C@H](C)[C@@H](O)c1ccccc1)OC)N(C)C(=O)[C@@H](NC(=O)[C@H](C(C)C)N(C)C(=O)OCc1ccc(NC(=O)[C@H](CCCNC(N)=O)NC(=O)[C@@H](NC(=O)[C@H](Cc2c[nH]cn2)NC(=O)CCOCCC(=O)NCCNc2ncc(-c3cc(C)cc(F)c3)c(N3CCC(N)CC3)c2-c2nc3ccc(Cl)cc3[nH]2)C(C)C)c(O[C@@H]2C[C@H](C(=O)O)[C@@H](O)[C@H](O)[C@H]2O)c1)C(C)C` [Compound 243], for which the EC50 turned out to be 0.082 nM in assay [1], 3.2 nM in assay [2] and 17 nM in assay [3].
For `CC[C@H](C)[C@@H]([C@@H](CC(=O)N1CCC[C@H]1[C@H](OC)[C@@H](C)C(=O)N[C@H](C)[C@@H](O)c1ccccc1)OC)N(C)C(=O)[C@@H](NC(=O)[C@H](C(C)C)N(C)C(=O)OCc1ccc(NC(=O)[C@H](CCCNC(N)=O)NC(=O)[C@@H](NC(=O)c2cc(OCCOCCOCCOCCOCCC(=O)NCCNc3ncc(-c4cc(C)cc(F)c4)c(N4CCC(N)CC4)c3-c3nc4ccc(Cl)cc4[nH]3)cc(C(=O)NCC(=O)O)c2)C(C)C)cc1)C(C)C` [Compound 161] the same measures were 0.32 nM, 9.1 nM and 63 nM.
For `CC[C@H](C)[C@@H]([C@@H](CC(=O)N1CCC[C@H]1[C@H](OC)[C@@H](C)C(=O)N[C@H](C)[C@@H](O)c1ccccc1)OC)N(C)C(=O)[C@@H](NC(=O)[C@H](C(C)C)N(C)C(=O)OCc1ccc(NC(=O)[C@H](CCCNC(N)=O)NC(=O)[C@@H](NC(=O)CCCCCNC(=O)[C@H](CCC(=O)O)NC(=O)[C@H](CCC(N)=O)NC(=O)CCOCCOCCOCCOCCC(=O)NCCNc2ncc(-c3cc(C)cc(F)c3)c(N3CCC(N)CC3)c2-c2nc3ccc(Cl)cc3[nH]2)C(C)C)cc1)C(C)C` [Compound 192] (X3-QE[Ahx]V[Cit][PABC][NMeV]V[Dil][Dolaproine]-X2) the same measures were 0.37 nM, 12 nM and 1300 nM.
The matching figures for `CC[C@H](C)[C@@H]([C@@H](CC(=O)N1CCCC1[C@H](OC)[C@@H](C)C(=O)N[C@H](C)[C@@H](O)c1ccccc1)OC)N(C)C(=O)[C@@H](NC(=O)[C@H](C(C)C)N(C)C(=O)OCc1ccc(NC(=O)[C@H](CCCNC(N)=O)NC(=O)[C@@H](NC(=O)[C@H](Cc2c[nH]cn2)NC(=O)CCOCCC(=O)NCCNc2ncc(-c3cc(C)cc(F)c3)c(N3CCC(N)CC3)c2-c2nc3ccc(Cl)cc3[nH]2)C(C)C)c(OCC(=O)O)c1)C(C)C` (stereo partly drawn) [Compound 202]: 0.14 nM, 4.6 nM and 14 nM.

The values above are taken from US20260007758A1, “SO[…]-2 RECEPTOR (SST2R) NON-PEPTIDE DRUG CONJUGATES AND USES THEREOF” (Crinetics Pharmaceuticals, Inc., priority 2024, published 2026).
